Laboratory results as given in PMC10648927, “Examining the activity of cefepime-taniborbactam against Burkholderia cepacia complex and Burkholderia gladioli isolated from cystic fibrosis patients in the United States” (Antimicrobial Agents and Chemotherapy, 2023).
Values after ≈ are worked out from the molar mass of the structure shown.

Experiments:
Design in all cases: agar dilution MIC, growth inhibition of clinical Burkholderia isolates
[1] = tested on: T1, Burkholderia cepacia complex Bcc Indeterminate AU9162; assay: microbe, parasite or virus in culture; conditions: Burkholderia cepacia
T1 construct: AU9162
Source text: (§1) We evaluated the activity of cefepime-taniborbactam against a panel of 140 Bcc clinical isolates (i.e., species ambifaria, arboris, cenocepacia, cepacia, contaminans, diffusa, dolosa, multivorans, pseudomultivorans, pyrrocinia, seminalis, stabilis, ubonensis, and vietnamiensis) and 10 B. gladioli from the Burkholderia cepacia Research Laboratory and Repository (University of Michigan) ([22], [25], [31]) (Supplementary Material, Tables S1 and S2). K. pneumoniae ATCC 700603 carrying bla SHV-18 and K. pneumoniae ATCC BAA-1705 harboring bla KPC strains were used as controls for β-lactam and β-lactamase inhibitor integrity; all controls tested within the anticipated quality control ranges (Table S3). Minimum inhibitory concentration (MIC) results were interpreted using Clinical Laboratory Standards Institute (CLSI) breakpoints, where available ([32]). […] An alternative cefepime-taniborbactam provisional susceptible breakpoint of ≤16 µg/mL is supported by in vivo efficacy data from neutropenic murine infection models (thigh, complicated urinary tract, and lung) ([15] [–] [17]) and data from safety and pharmacokinetics studies in human volunteers ([33], [34]). The cefepime-taniborbactam antimicrobial activity was compared to cefepime, meropenem, meropenem-vaborbactam, and levofloxacin, to data published for first-line agents (e.g., ceftazidime and trimethoprim-sulfamethoxazole) and to those recommended by the CLSI for clinical testing (e.g., minocycline) against the Bcc and B. gladioli panel ([22], [32]). Of note, the MICs of all these agents were determined by the agar dilution method, which alongside broth microdilution, are recommended by the CLSI to assess the antimicrobial susceptibility of Bcc isolates ([32]).

B. multivorans AU25626 = tested on: T2, B. multivorans AU25626; assay: microbe, parasite or virus in culture; conditions: Burkholderia multivorans, AU25626
T2 construct: AU25626
Source text: as §1

B. cenocepacia AU20545 = tested on: T3, B. cenocepacia AU20545; assay: microbe, parasite or virus in culture; conditions: Burkholderia cenocepacia, AU20545
T3 construct: AU20545
Source text: as §1

B. contaminans AU25403 = tested on: T4, B. contaminans AU25403; assay: organism not typed
T4 construct: AU25403
Source text: as §1

B. dolosa AU29985 = tested on: T5, B. dolosa AU29985; assay: microbe, parasite or virus in culture; conditions: Burkholderia dolosa, AU29985
T5 construct: AU29985
Source text: as §1

B. cenocepacia AU6550 = tested on: T6, B. cenocepacia AU6550; assay: microbe, parasite or virus in culture; conditions: Burkholderia cenocepacia, AU6550
T6 construct: AU6550
Source text: as §1

B. multivorans AU23668 = tested on: T7, B. multivorans AU23668; assay: microbe, parasite or virus in culture; conditions: Burkholderia multivorans, AU23668
T7 construct: AU23668
Source text: as §1

B. gladioli AU16341 = tested on: T8, B. gladioli AU16341; assay: organism not typed
T8 construct: AU16341
Source text: as §1

B. cepacia AU1555 = tested on: T9, B. cepacia AU1555; assay: microbe, parasite or virus in culture; conditions: Burkholderia cepacia, AU1555
T9 construct: AU1555
Source text: as §1

B. gladioli AU1009 = tested on: T10, B. gladioli AU1009; assay: organism not typed
T10 construct: AU1009
Source text: as §1

B. cenocepacia AU141094 = tested on: T11, B. cenocepacia AU141094; assay: microbe, parasite or virus in culture; conditions: Burkholderia cenocepacia, AU141094
T11 construct: AU141094
Source text: as §1

B. ubonensis AU7314 = tested on: T12, B. ubonensis AU7314; assay: organism not typed
T12 construct: AU7314
Source text: as §1

B. cenocepacia AU17796 = tested on: T13, B. cenocepacia AU17796; assay: microbe, parasite or virus in culture; conditions: Burkholderia cenocepacia, AU17796
T13 construct: AU17796
Source text: as §1

B. cenocepacia AU11339 = tested on: T14, B. cenocepacia AU11339; assay: microbe, parasite or virus in culture; conditions: Burkholderia cenocepacia, AU11339
T14 construct: AU11339
Source text: as §1

B. vietnamiensis AU30387 = tested on: T15, B. vietnamiensis AU30387; assay: microbe, parasite or virus in culture; conditions: Burkholderia vietnamiensis, AU30387
T15 construct: AU30387
Source text: as §1

[2] = tested on: T16, Burkholderia cepacia complex Bcc Indeterminate AU19076; assay: microbe, parasite or virus in culture; conditions: Burkholderia cepacia
T16 construct: AU19076
Source text: as §1

B. vietnamiensis AU3578 = tested on: T17, B. vietnamiensis AU3578; assay: microbe, parasite or virus in culture; conditions: Burkholderia vietnamiensis, AU3578
T17 construct: AU3578
Source text: as §1

B. cenocepacia AU19276 = tested on: T18, B. cenocepacia AU19276; assay: microbe, parasite or virus in culture; conditions: Burkholderia cenocepacia, AU19276
T18 construct: AU19276
Source text: as §1

B. cenocepacia AU13262 = tested on: T19, B. cenocepacia AU13262; assay: microbe, parasite or virus in culture; conditions: Burkholderia cenocepacia, AU13262
T19 construct: AU13262
Source text: as §1

B. multivorans AU21015 = tested on: T20, B. multivorans AU21015; assay: microbe, parasite or virus in culture; conditions: Burkholderia multivorans, AU21015
T20 construct: AU21015
Source text: as §1

B. vietnamiensis AU21549 = tested on: T21, B. vietnamiensis AU21549; assay: microbe, parasite or virus in culture; conditions: Burkholderia vietnamiensis, AU21549
T21 construct: AU21549
Source text: as §1

B. cepacia AU22213 = tested on: T22, B. cepacia AU22213; assay: microbe, parasite or virus in culture; conditions: Burkholderia cepacia, AU22213
T22 construct: AU22213
Source text: as §1

Row | Compound | MIC [1] [µg/mL] | MIC (B. multivorans AU25626) [µg/mL] | MIC (B. cenocepacia AU20545) [µg/mL] | MIC (B. contaminans AU25403) [µg/mL] | MIC (B. dolosa AU29985) [µg/mL] | MIC (B. cenocepacia AU6550) [µg/mL] | MIC (B. multivorans AU23668) [µg/mL] | MIC (B. gladioli AU16341) [µg/mL] | MIC (B. cepacia AU1555) [µg/mL] | MIC (B. gladioli AU1009) [µg/mL] | MIC (B. cenocepacia AU141094) [µg/mL] | MIC (B. ubonensis AU7314) [µg/mL] | MIC (B. cenocepacia AU17796) [µg/mL] | MIC (B. cenocepacia AU11339) [µg/mL] | MIC (B. vietnamiensis AU30387) [µg/mL] | MIC [2] [µg/mL] | MIC (B. vietnamiensis AU3578) [µg/mL] | MIC (B. cenocepacia AU19276) [µg/mL] | MIC (B. cenocepacia AU13262) [µg/mL] | MIC (B. multivorans AU21015) [µg/mL] | further results
1 | CO/N=C(\C(=O)N[C@@H]1C(=O)N2C(C(=O)[O-])=C(C[N+]3(C)CCCC3)CS[C@H]12)c1csc(N)n1 [cefepime] | 32 (≈ 66.6 µM) | 8 (≈ 16.6 µM) | 8 (≈ 16.6 µM) | 8 (≈ 16.6 µM) | > 32 | 32 (≈ 66.6 µM) | 4 (≈ 8.32 µM) | > 32 | > 32 | 16 (≈ 33.3 µM) | > 32 | > 32 | 16 (≈ 33.3 µM) | 16 (≈ 33.3 µM) | 2 (≈ 4.16 µM) | 16 (≈ 33.3 µM) | > 32 | 8 (≈ 16.6 µM) | > 32 | > 32 | MIC (B. vietnamiensis AU21549): 2 µg/mL (≈ 4.16 µM); MIC (B. cepacia AU22213): 32 µg/mL (≈ 66.6 µM)
2 | C[C@H]1COc2c(N3CCN(C)CC3)c(F)cc3c(=O)c(C(=O)O)cn1c23 [levofloxacin] | 1 (≈ 2.77 µM) | 4 (≈ 11.1 µM) | 2 (≈ 5.53 µM) | 2 (≈ 5.53 µM) | > 32 | 8 (≈ 22.1 µM) | 2 (≈ 5.53 µM) | 4 (≈ 11.1 µM) | 16 (≈ 44.3 µM) | 0.5 (≈ 1.38 µM) | > 32 | 4 (≈ 11.1 µM) | 8 (≈ 22.1 µM) | 2 (≈ 5.53 µM) | 2 (≈ 5.53 µM) | 4 (≈ 11.1 µM) | 8 (≈ 22.1 µM) | 0.5 (≈ 1.38 µM) | 4 (≈ 11.1 µM) | 32 (≈ 88.6 µM) | MIC (B. vietnamiensis AU21549): 4 µg/mL (≈ 11.1 µM); MIC (B. cepacia AU22213): 2 µg/mL (≈ 5.53 µM)
3 | C[C@@H](O)[C@H]1C(=O)N2C(C(=O)O)=C(S[C@@H]3CN[C@H](C(=O)N(C)C)C3)[C@H](C)[C@H]12 [meropenem] | 4 (≈ 10.4 µM) | > 32 | 2 (≈ 5.22 µM) | 2 (≈ 5.22 µM) | > 32 | 8 (≈ 20.9 µM) | 2 (≈ 5.22 µM) | 8 (≈ 20.9 µM) | 8 (≈ 20.9 µM) | 1 (≈ 2.61 µM) | 16 (≈ 41.7 µM) | 32 (≈ 83.4 µM) | 4 (≈ 10.4 µM) | 2 (≈ 5.22 µM) | 0.25 (≈ 0.652 µM) | 4 (≈ 10.4 µM) | 4 (≈ 10.4 µM) | 2 (≈ 5.22 µM) | 4 (≈ 10.4 µM) | 16 (≈ 41.7 µM) | MIC (B. vietnamiensis AU21549): 0.5 µg/mL (≈ 1.3 µM); MIC (B. cepacia AU22213): 4 µg/mL (≈ 10.4 µM)
